# Results as given in patent US20230192765A1, “PEPTIDES TARGETING SHP2 AND USES THEREOF” (UNIVERSITÀ DEGLI STUDI DI ROMA "TOR VERGATA", priority 2020, published 2023).
# Where two headings read alike, the source gives them in different places. Primed or numbered codes have the meaning given here. [ ]: non-standard residue; d: D form. 5,6‑carboxyfluorescein″ = CF is 5,6 carboxyfluorescein; pY = N[C@@H](Cc1ccc(OP(=O)(O)O)cc1)C(=O)O
# How the values were obtained:
# [1] = Peptide stability in DMEM; format: in vitro ADME; conditions: three days
# Protocol: (§1) The peptides were dissolved in DMSO (C=5 mg/mL). In eppendorf tubes, 1 mL of HEPES buffer (C = 25 mM, pH = 7.6) was temperature equilibrated at 37° C. before adding 250 µL of human serum and 20 µL of peptide solution; the reaction was followed for 90 minutes. At fixed intervals, 100 µL of the solution were withdrawn and added to 200 µL of absolute ethanol. These samples were kept on ice for 15 minutes, then centrifuged at 13,000 rpm for 5 minutes; the supernatant solutions were analyzed by HPLC and HPLC-MS with 20-60% B gradient in 20 minutes to follow the reaction. In parallel, samples containing peptide, buffer and ethanol only were also analyzed, too. A degradation resistance test was also conducted in DMEM (Dulbecco’s Modified Eagle Medium). The experimental conditions are similar to those described above; the reaction was followed for 72 hours. The enzymatic degradation resistance tests were followed by HPLC using a 5-50% B gradient in 20 minutes.
# [2] = format: in vitro ADME; conditions: human serum, up to 90 minutes, 37° C.
# Protocol: as §1
# [3] = tested on: zebrafish embryos injected with Shp2a-D61G mRNA; experiment: In vivo zebrafish rescue experiments, Shp2a-D61G embryos
# Protocol: (§2) One cell stage zebrafish embryos were injected with a mixture of 120 ng/µl of mRNA encoding either GFP-2A-Shp2-D61G or GFP-2A-Shp2-wt (as a control), with or without OP, at 0.3 µM, 3 µM and 5 µM concentration. Embryos were selected based on proper GFP expression and imaged at 11 hours post fertilization (hpf) in their lateral position using the Leica M165 FC stereomicroscope. Images were analyzed using ImageJ [Schneider 2012], by measuring the ratio of the major and minor axis from a minimum of 31 embryos. Statistical analysis was performed in GraphPad Prism, using the analysis of variance (ANOVA) complemented by Tukey’s honest significant difference test (Tukey’s HSD). To measure the survival of injected embryos, a minimum of 48 embryos per group were grown up to 4 days post fertilization (dpf) and counted at 1 dpf and 4 dpf. Survival curves were plotted using GraphPad Prism, and the differences between samples were determined using the Log-rank (Mantel-Cox) test.
# [4] = tested on: zebrafish embryos injected with Shp2a-WT mRNA; experiment: In vivo zebrafish experiments, Shp2a-WT embryos
# Protocol: as §2
# [5] = tested on: pathogenic variants of SHP2; conditions: literature [Sun 2018; LaRochelle 2018]; cited from earlier work
# NIH3T3 cells [6] = experiment: Peptide toxicity in the cell uptake experiments (Sytox); format: cell-based; conditions: all the concentrations tested
# Protocol: Cell viability in the FACS experiment was determined by using Sytox fluorescence.
# (§3) Cells were incubated for different times and then washed, collected and stained with SYTOX blue (1 mM, Invitrogen™) to identify the viable population and the green fluorescence of CFP9W5 was recordered to measure peptide uptake. Data were analysed with Kaluza Analysis Software (Beckman Coulter).
# NIH3T3 cells [7] = experiment: Cell uptake experiments (FACS); format: cell-based; conditions: TAT linked to the C-terminus
# Protocol: Cell uptake experiments were performed on NIH3T3 cells. About 200,000 cells were seeded on six-well plates and cultured in Dulbecco’s modified Eagle’s medium supplemented with 10% heat-inactivated fetal bovine serum (Gibco) and 1 % penicillin-streptomycin, at 37° C. with 5% CO2.
# Two different strategies were followed. In a first set of experiments, the fluorescent peptide has been incubated with the cell-penetrating peptide (CPP) Pep-1. A Pep-1 stock solution was prepared by dissolving the peptide in ultrapure water. The fluorescent peptide was diluted in PBS from the DMSO stock solution. The peptides were mixed and incubated for 30 minutes at room temperature in a final volume of 400 µl. The conditions for cell delivery were optimized by investigating different cargo to CPP ratios. The mixture was then added to the cells, washed with PBS, together with 600 µl of serum-free medium (volumes for one well are reported). After one hour, 10% of fetal bovine serum (FBS) was added.
# as §3
# A second set of measurement was carried out using the TAT-conjugated peptide analog. […]
molecule,measurement,setting,value
"CC[C@H](C)[C@H](NC(=O)[C@H](Cc1ccc(C(F)(F)P(=O)(O)O)cc1)NC(=O)[C@H](CC(N)=O)NC(=O)[C@H](CC(C)C)NC(=O)CNC(C)=O)C(=O)N[C@@H](CC(=O)O)C(=O)N[C@@H](CC(C)C)C(=O)N[C@@H](CC(=O)O)C(=O)N[C@@H](Cc1c[nH]c2ccccc12)C(N)=O [Peptide P9ND0W5, GLN-F2Pmp-IDLDW]",degradation (HPLC),[1],No significant degradation
same,degradation (HPLC),[2],No significant degradation
same,rescue of the gastrulation phenotype,[3]; 5 µM peptide,significant
same,survival of embryos,"[3]; co-injection 0.3 µM, 3 µM and 5 µM, counted 1 dpf and 4 dpf",significant and dose dependent improvement
same,lethality of embryos,[4]; co-injection of 3 µM,not affected
same,embryo shape at 11 hpf,[4]; co-injection with 3 µM peptide,no impact on their shape
CC1(N)CCN(c2cnc(-c3cccc(Cl)c3Cl)c(N)n2)CC1 [SHP099],activity in pathogenic variants of SHP2,[5],significantly impaired activity
"CF-GLN-pY-IDLDW-GRKKRRQRRR ({5,6‑carboxyfluorescein″}-GLN[pY]IDLDWGRKKRRQRRR-NH2) [CF-P9W5-TAT]",cell killing,NIH3T3 cells [6],did not cause any cell killing
same,"cell uptake, covalent strategy",NIH3T3 cells [7],efficiently obtained
